Laboratory results taken from PMC4232785, “RP-HPTLC Retention Data in Correlation with the In-silico ADME Properties of a Series of s-triazine Derivatives” (Iranian Journal of Pharmaceutical Research : IJPR, 2014).

Experiment: RP-HPTLC retention (RM0, lipophilicity parameter) on RP-18W/UV254 plates
Type: physicochemical
Method: Precoated RP-18W/UV254 plates (Macherey-Nagel GmbH and Co., Düren, Germany) were used for RP HPTLC analysis. Investigated solvent mixtures used as mobile phases: acetone-water (φ = 0.5 - 0.8; v/v), acetonitrile-water (φ = 0.5 - 0.9; v/v), methanol-water (φ = 0.65 - 0.95; v/v), 2-propanol-water (φ = 0.4 - 0.7; v/v), tetrahydrofuran-water (φ = 0.5 - 0.75; v/v).
The investigated compounds were dissolved in an appropriate solvent, methanol, 1 mg mL^-1) and the solutions (0.2 μL) were separately spotted into the plates. All the reagents used were of analytical purity. The plates were developed by the ascending technique at room temperature without previous saturation of the chamber with mobile phase. All measurements were carried out at ambient temperature. After drying of the plates, the spots were visualized under UV light at λ = 254 nm. RF values were calculated as average from three measurements for each solute-mobile phase combination. For subsequent calculations mean RM values were used; these were calculated by using the formula:
Equation (1) RM=log(1/RF-1)
The calculated RM values for different concentrations of organic solvent were used to check the linearity of their relationship with the volume fraction of organic modifier according to the equation ([23]):
Where φ is the volume fraction of organic solvent in the mobile phase, RM^0 is the intercept obtained by extrapolation to φ = 0% of modifier, and S is the slope of the linear plot. Equations (1) and (2) served for deriving data for further QSAR studies.

[1] = RP-18W/UV254, 2-propanol – water (φ = 0.4 - 0.7)
[2] = RP-18W/UV254, acetone – water (φ = 0.5 - 0.8)
[3] = RP-18W/UV254, acetonitrile – water (φ = 0.5 - 0.9)
[4] = RP-18W/UV254, methanol – water (φ = 0.65 - 0.95)
[5] = RP-18W/UV254, tetrahydrofuran - water (φ = 0.5 - 0.75)

Structure (SMILES) | RM^0 (retention parameter, intercept at φ = 0% modifier) [1] | RM^0 (retention parameter, intercept at φ = 0% modifier) [2] | RM^0 (retention parameter, intercept at φ = 0% modifier) [3] | RM^0 (retention parameter, intercept at φ = 0% modifier) [4] | RM^0 (retention parameter, intercept at φ = 0% modifier) [5]
CC(Nc1nc(Cl)nc(NC(C)c2ccccc2)n1)c1ccccc1 (centres unmarked) [I.1] | 1.900 | 3.185 | 2.110 | 2.457 | 3.439
Clc1nc(NC2CCCCC2)nc(NC2CCCCC2)n1 [III.1] | 2.251 | 4.118 | 2.356 | 3.440 | 3.426
Clc1nc(N(c2ccccc2)C2CCCCC2)nc(N(c2ccccc2)C2CCCCC2)n1 [III.4] | 2.747 | 4.693 | 3.556 | 5.295 | 3.902
CC1(Nc2nc(Cl)nc(Cl)n2)CCCC1 [IV.1] | 1.118 | 1.672 | 1.497 | 1.526 | 1.733
CC1(Nc2nc(Cl)nc(Cl)n2)CCCCCC1 [IV.3] | 1.779 | 2.257 | 1.956 | 1.756 | 2.222
CC1(Nc2nc(Cl)nc(NC3(C)CCCC3)n2)CCCC1 [II.1] | 2.183 | 3.743 | 2.388 | 3.181 | 3.289
CC1(Nc2nc(Cl)nc(NC3(C)CCCCC3)n2)CCCCC1 [II.2] | 2.384 | 3.935 | 2.753 | 3.320 | 3.401
CC1(Nc2nc(Cl)nc(NC3(C)CCCCCC3)n2)CCCCCC1 [II.3] | 3.013 | 4.218 | 3.000 | 4.530 | 4.071
Cc1ccc(C(C)Nc2nc(Cl)nc(NC(C)c3ccc(C)cc3)n2)cc1 (centres unmarked) [I.2] | 2.525 | 3.580 | 2.786 | 3.188 | 3.567
Clc1nc(NC2CCCCC2)nc(N(c2ccccc2)C2CCCCC2)n1 [III.3] | 2.691 | 4.019 | 3.101 | 3.980 | 3.387
CC(Nc1nc(Cl)nc(NC(C)c2ccc(Br)cc2)n1)c1ccc(Br)cc1 (centres unmarked) [I.4] | 2.764 | 4.303 | 2.896 | 4.407 | 3.351
CN(c1nc(Cl)nc(N(C)C2CCCCC2)n1)C1CCCCC1 [III.2] | 2.769 | 4.626 | 3.284 | 3.998 | 3.611
CC(Nc1nc(Cl)nc(NC(C)c2ccc(Cl)cc2)n1)c1ccc(Cl)cc1 (centres unmarked) [I.3] | 2.617 | 3.839 | 2.887 | 3.976 | 3.538
